From PubChem BioAssay AID1996
In brackets after ≈: the same amount, converted by molar mass.

Conditions: buffer; pH 7.4; 200.0 µM

Row | Compound | solubility kinetic [µg/mL]
1 | CC12CCC(C1)C(C)(C)C2NS(=O)(=O)c1ccc(F)cc1 (stereo not given) | 6.9 (≈ 22.2 µM)
2 | CN(C)C(CNc1ncccn1)c1ccccc1 (stereo not given) | 32.6 (≈ 135 µM)
3 | Cc1cc(-c2cccs2)c(C#N)c(=S)[nH]1 | 28.3 (≈ 122 µM)
4 | CC(C)(C)C(=O)COc1ccccc1[N+](=O)[O-] | > 35.6
5 | COc1ccccc1C(=O)NCCCCNC(=O)c1ccccc1OC | > 53.5
6 | COc1ccc(C(=O)COC(=O)c2ccccn2)cc1OC | 44.5 (≈ 148 µM)
7 | Cc1csc(SC(C)C(=O)Nc2ccc(F)cc2Cl)n1 (stereo not given) | 44.9 (≈ 136 µM)
8 | CN(C)c1cc(-c2ccc(Cl)cc2)oc(=O)c1Cl | 1.7 (≈ 5.98 µM)
9 | CC(=O)c1cccc(NC(=O)NCCc2c[nH]c3ccccc23)c1 | 2.2 (≈ 6.85 µM)
10 | CC(=O)Nc1ccc(/C=C/c2ccc3c([N+](=O)[O-])cccc3n2)cc1 | 16.2 (≈ 48.6 µM)
11 | Cc1noc(C)c1CSc1ccccc1C(=O)O | > 39.5
12 | COc1ccc(OC)c(CNC(=O)c2coc(=O)c3ccccc23)c1 | > 50.9
13 | Cc1ccc(CC(=O)Nc2ccc(S(=O)(=O)N3CCOCC3)cc2)cc1 | 7.5 (≈ 20 µM)
14 | CCOC(=O)c1cc(NC(=O)c2cccnc2)ccn1 | 37.1 (≈ 137 µM)
15 | COc1cc(NC(=O)CCN2CCN(CCO)CC2)cc(OC)c1 | 44.5 (≈ 132 µM)
16 | O=C(Nc1ccc(-c2cn3c(n2)SCC3)cc1)c1ccco1 | 24.1 (≈ 77.4 µM)
17 | COc1cccc(NC(=O)CNC(=O)c2ccc([N+](=O)[O-])cc2)c1 | 2.9 (≈ 8.81 µM)
18 | COc1cccc(CN2CCN(Cc3ccc(O)cc3)CC2CCO)c1 (stereo not given) | 49.2 (≈ 138 µM)
19 | COc1cc(/C=C/C(=O)OCC(=O)Nc2cccc(F)c2)ccc1O | 24.6 (≈ 71.2 µM)
20 | CCOc1ccccc1NC(=S)NCc1ccccc1 | 38.8 (≈ 135 µM)
21 | O=CC1=C(N2CCOCC2)/C(=C/c2ccc(Cl)cc2)CC1 | 32.1 (≈ 106 µM)
22 | Nc1nccc(/C=C/c2c(Cl)cccc2Cl)n1 | 1.9 (≈ 7.14 µM)
23 | NC(=O)C[n+]1cccc(/C=N/O)c1.[Cl-] | > 32.3
24 | CC1CC(OCC(O)CN2CCCCC2C)CC(C)(C)C1.Cl (stereo not given) | > 50.1

Row | Compound | solubility kinetic [µg/mL]
25 | N#CCCN(C(=O)COC(=O)CCc1ccccc1)c1ccccc1 | 44.8 (≈ 133 µM)
26 | CCc1ccc2[nH]c(C(=O)Nc3ccc(C)c(F)c3)cc2c1 | 0.9 (≈ 3.04 µM)
27 | CCOc1ccc(NC(=S)N2c3ccccc3CC2C)cc1 (stereo not given) | 4.4 (≈ 14.1 µM)
28 | COc1ccc(C(=O)O/N=C(\N)c2ccc(Cl)cc2)cc1 | 0.4 (≈ 1.31 µM)
29 | COc1ccc(C(=O)N[C@H](C(=O)NC2CCCCC2)C(C)C)cc1 | 5.1 (≈ 15.3 µM)
30 | CCC(C)[C@H](NC(=O)N1CCCCC1)C(=O)OC (stereo not given in full) | > 38.5
31 | CN/C(=C/[N+](=O)[O-])NCCSCc1ccc(CN(C)C)o1.Cl | 52.4
32 | O=C(Cc1ccccc1[N+](=O)[O-])NCc1ccco1 | > 39
33 | CCOC(=O)c1cc2c(=O)c3cc(C)ccc3oc2nc1C | < 0.6
34 | COc1ccc(CNC(=O)CCCSc2ccccc2)cc1 | 2.4 (≈ 7.61 µM)
35 | CN(C)C/C=C/C(O)(c1ccccc1)c1ccccc1 | > 40.1
36 | O=C(COc1ccc(S(=O)(=O)NC2CCCCC2)cc1)NC1CC1 | > 52.9
37 | NC(=O)COC(=O)c1ccc2noc(-c3ccccc3)c2c1 | 26.1 (≈ 88.1 µM)
38 | COc1ccc(NC(=S)N2CCc3ccccc32)cc1OC | > 47.2
39 | CCN(CC(=O)NCCN1CCOCC1)S(=O)(=O)c1ccc(F)cc1 | > 56
40 | Nc1ccnc(=O)[nH]1 | > 16.7
41 | CCCc1c(C)nc(N2CCN(c3ccc(F)cc3)CC2)[nH]c1=O | 1.2 (≈ 3.63 µM)
42 | CC(=O)N1c2ccccc2C(C)=CC1(C)C | 8.1 (≈ 37.6 µM)
43 | COC(=O)CNC(=O)COC(=O)c1ccc(Cl)nc1 | > 43
44 | O=C1CC(C(=O)Nc2cccc(F)c2)n2c(nc3ccccc32)N1 (stereo not given) | 0.9 (≈ 2.78 µM)
45 | CCOCCn1c(CC)nc2ccccc21 | > 32.7
46 | COc1ccc(-c2cc(C(=O)Nc3cc(C)on3)no2)cc1 | < 0.2
47 | CCC1(C)CC(C(N)=S)CCO1 (stereo not given) | 17.1 (≈ 91.3 µM)
48 | Cc1ccc(C2C(C(=O)c3ccco3)=C(O)C(=O)N2c2ncccn2)cc1 (stereo not given) | > 54.2

Row | Compound | solubility kinetic [µg/mL]
49 | COC(=O)C1=C(N)OC2=C(C(=O)CCC2)C1c1ccccc1OC (stereo not given) | 14.5 (≈ 44 µM)
50 | Cc1cc(OCCCCCn2ccnc2)cc(C)c1Cl.Cl | 23.1
51 | CCOc1ccc(N2CC(C(=O)NC3CCSC3=O)CC2=O)cc1 (stereo not given) | 42.6 (≈ 122 µM)
52 | Cc1cc(NC(=O)CSc2ncc(C(=O)O)n2-c2ccc(F)cc2)no1 | 55.4 (≈ 147 µM)
53 | CCC(C)NC(=O)c1cn(-c2cccc(OC)c2)c(=O)c2ccccc12 (stereo not given) | 46.9 (≈ 134 µM)
54 | CC(=O)c1c(C)[n+]([O-])c2ccc3c(non3O)c12 | 25.5 (≈ 103 µM)
55 | COc1ccccc1OCC(=O)Nc1ccc2c(c1)OCCO2 | 39.1 (≈ 124 µM)
56 | COc1nc(C)cc(C)c1S(=O)(=O)c1ccccc1C | 4.8 (≈ 16.5 µM)
57 | CC1C(=O)Nc2ccc(S(=O)(=O)N3CCCCCC3)cc21 (stereo not given) | > 46.3
58 | Cc1c(C)n(Cc2ccccc2)c2ncnc(NCCCN(C)C)c12 | > 50.6
59 | O=c1c2ccccc2[nH]c(=S)n1Cc1ccccc1Cl | 0.9 (≈ 2.97 µM)
60 | Cc1ccc(C(=O)NNC(=O)c2ccncc2)cc1[N+](=O)[O-] | > 45
61 | Cc1c(N=Cc2c(O)n(C)c(=O)[nH]c2=O)c(=O)n(-c2ccccc2)n1C | > 53.3
62 | O=P([O-])(CN1CCCCCC1)C1Cc2ccccc2C1 | 43.7
63 | CC(=O)Nc1ccc(OCC(=O)Nc2ccc(Cl)c(S(=O)(=O)N3CCOCC3)c2)cc1 | 10.7 (≈ 22.9 µM)
64 | O=C(c1cc(-c2ccc(Cl)cc2Cl)on1)N1CCCC1 | 1.8 (≈ 5.78 µM)
65 | CCOC(=O)c1c(C)n(C)c2c1cc(OC(C)=O)c1ccccc12 | < 0.7
66 | S=C(NCc1ccco1)NCC1CCCO1 (stereo not given) | 34.8 (≈ 145 µM)
67 | COc1ccc(CCNC(=O)Cc2cccs2)cc1OC | > 45.8
68 | O=C(Nc1cccc([N+](=O)[O-])c1)NC1CCCCCCC1 | 3.8 (≈ 13 µM)
69 | CC(=O)c1c(C)[nH]c(C(=O)OCc2cccc(C)c2)c1C | 4.2 (≈ 14.7 µM)
70 | COCCn1c(C)cc(C(=O)COC(=O)c2cccnc2SC)c1C | 5.2 (≈ 14.3 µM)
71 | CN1CCCC(OC(=O)c2ccc(Cl)cc2)C1.Cl (stereo not given) | 41.5
72 | CC(C)c1ccc(CNC(=O)C(=O)NCC2CCCO2)cc1 (stereo not given) | 28.5 (≈ 93.6 µM)

Row | Compound | solubility kinetic [µg/mL]
73 | N#CCCOC1(C#CCN2CCCC2)CCCCC1 | 32.2 (≈ 124 µM)
74 | N#C/C(=C\c1ccc(-c2ccccc2[N+](=O)[O-])o1)C(N)=O | 2.2 (≈ 7.77 µM)
75 | CSc1nc(C)nc(N/C=C(\C#N)S(=O)(=O)c2ccccc2Cl)n1 | 15.6 (≈ 40.9 µM)
76 | CCC1CCCCN1C(=S)NC(=O)c1cccc([N+](=O)[O-])c1 (stereo not given) | > 48.2
77 | COc1ccc(S(=O)(=O)NCCC(=O)NC2CCCCC2C)cc1[N+](=O)[O-] (stereo not given) | 20.1 (≈ 50.3 µM)
78 | Cc1ccc(NC(=O)CCC(=O)c2cccs2)c(O)c1 | 24.2 (≈ 83.6 µM)
79 | N#Cc1nc(-c2ccc(F)cc2)oc1NCCCn1ccnc1 | 2.5 (≈ 8.03 µM)
80 | Cc1ccc(/C=N/NC(=O)c2ccc3nc[nH]c3c2)o1 | > 40.2
81 | C=CCOc1cccc(/C=C\c2nc(O)c([N+](=O)[O-])c(=O)[nH]2)c1 | > 47.3
82 | Cl.NC(=NCCc1ccccc1)NC(=O)c1cc(Cl)ccc1O | 10.6
83 | Cn1cc(C(=O)Nc2ccccn2)c(=O)c2ccccc21 | 1.3 (≈ 4.65 µM)
84 | Cn1cccc1C1CCCN1CC(=O)Nc1ccc(C#N)c(Cl)c1 (stereo not given) | 12.3 (≈ 35.9 µM)
85 | CC1CCN(CC(=O)N2CCc3ccccc32)CC1 | 36.9 (≈ 143 µM)
86 | Cc1ncc([N+](=O)[O-])n1CC(=O)Nc1ccccc1F | > 41.7
87 | Cc1onc(C(=O)NC2CCCCC2)c1[N+](=O)[O-] | > 38
88 | CC(C)CN(C(=O)C1CCCC1)C1CCS(=O)(=O)C1 (stereo not given) | > 43.1
89 | COc1ccc(Nc2nc(NCC3CCCO3)nc(N)c2[N+](=O)[O-])cc1 (stereo not given) | 1.7 (≈ 4.72 µM)
90 | CC(C)[C@H](Nc1ccc(C(F)(F)F)cc1[N+](=O)[O-])C(=O)O.[Cl-] | > 51.3
91 | Cc1ccc(C2=NOC3(CC(=O)N(c4ccc(C)cc4)C3=O)C2)cc1 (stereo not given) | 12.6 (≈ 37.7 µM)
92 | Oc1ccc(C(=S)N2CCCC2)cc1 | > 31.1
93 | Cc1ccnc(NC(=O)COc2ccc(Cl)cc2)n1 | 9.7 (≈ 34.9 µM)
94 | CCCNC(=O)c1oc2ccc3c(c2c1C)C=CC(C)(C)O3 | 14.2 (≈ 47.4 µM)
95 | O=S(=O)(Nc1ccccc1O)c1ccc(-c2ccccc2)cc1 | 12.3 (≈ 37.8 µM)
96 | Nc1cc(=O)[nH]c(SCc2cccc3ccccc23)n1 | 4 (≈ 14.1 µM)

Row | Compound | solubility kinetic [µg/mL]
97 | CNC(=S)NC1(C)CCS(=O)(=O)C1 (stereo not given) | > 33.3
98 | COc1ccc(CNC(=O)CCSCc2cccc(F)c2)cc1 | > 50
99 | COc1ccc(C(=O)NCCCc2ccccc2)cc1OC | > 44.9
100 | O=C1OC(Nc2ccc(F)c([N+](=O)[O-])c2)c2ccccc21 (stereo not given) | 42.6 (≈ 148 µM)
101 | Cc1c(C)n(C)c2ccc(C(=O)NCCCN3CCCC3)cc12 | > 47
102 | CN(C)c1cccc(C(=O)NCc2ccc3c(c2)OCO3)c1 | > 44.8
103 | CC(=O)N1CCN(Cc2ccc(Cl)nc2)CC1 | > 38.1
104 | Cn1c(=O)n(CC(=O)[O-])c(=O)c2c1nc1n2CCS1 | 40.8
105 | COCCCNc1nc2nonc2nc1N(C)CC1CCCN1C (stereo not given) | 43.5 (≈ 130 µM)
106 | O=[N+]([O-])c1ccc2nc(-c3cccnc3)[nH]c2c1 | > 36
107 | Cc1ccccc1NC(=O)c1ccc2ccccc2c1 | 1.2 (≈ 4.59 µM)
108 | O=C(Nc1ccccc1O)C(c1ccccc1)c1ccccc1 | 9 (≈ 29.7 µM)
109 | OCCCc1nc2ccccc2n1CCCCOc1ccccc1 | 44.6 (≈ 137 µM)
110 | O=[N+]([O-])c1ccccc1S(=O)(=O)Nc1cccc2cccnc12 | 1.8 (≈ 5.47 µM)
111 | CC(=O)c1ccccc1NS(=O)(=O)c1cccc2nonc12 | 0.9 (≈ 2.84 µM)
112 | COc1cccc(CN2CCN(C(=O)Cc3ccccc3OC)CC2)c1 | > 53.2
113 | CC1CCC(C(C)C)C(OCC(O)CNC(C)(C)C)C1.Cl (stereo not given) | > 48.3
114 | O=C(COC(=O)c1cccnc1Cl)NC1CCCCC1 | > 44.5
115 | COc1ccc(CCNC(=O)c2cc(C)oc2C)cc1OC | 42 (≈ 138 µM)
116 | COc1ccc(-c2nc(C)ncc2-c2ccc(Cl)cc2)c(O)c1 | < 0.3
117 | Cc1ccc(-c2cn3cc(C)ccc3n2)cc1 | 1.6 (≈ 7.2 µM)
118 | O=C(c1cccc(F)c1)N1CCCc2ccccc21 | 28.1 (≈ 110 µM)
119 | CC(C)Cn1c(=S)[nH]c2cc(Cl)ccc21 | 18.5 (≈ 76.8 µM)
120 | Cc1noc(C)c1S(=O)(=O)Nc1cccc(CO)c1 | > 42.3
